We go through 12 compounds from ChEMBL document CHEMBL1201862, “PubChem BioAssay data set” (2004).

Holding throughout (assay): NCI anticancer screen, dose series, 48 h
In experiment [1] the test system is ACHN.
The test system of experiment [2] is SNB-19.
In experiment [3] the test system is MOLT-4.
Experiment [4] relates to TK-10.
The subject of experiment [5] is NCI/ADR-RES.
Experiment [6] has as its system OVCAR-3.
Experiment [7] has as its system A549.
For experiment [8], the system named is OVCAR-8.
Experiment [9] concerns SN12C.
Experiment [10] relates to SF-295.
The test system of experiment [11] is A498.
Experiment [12] deals with HCC 2998.
The test system of experiment [13] is CCRF-CEM.
Experiment [14] concerns Hs-578T.
For experiment [15], the system named is NCI-H460.
The subject of experiment [16] is HCT-116.
The subject of experiment [17] is UACC-62.
For experiment [18], the system named is SNB-75.
Experiment [19] relates to SK-MEL-2.

The structures appear in SMILES notation.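 Five concentrations, 48 hours, 96-well plates. GI50: concentration for 50% inhibition of growth.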 Active and inactive are the calls of the source. Cut-off read from the data, not from the text of the source: active = GI50 up to about 1.1 µM and inactive = higher.

`CCCCCC(=O)CCCCCCCC(O)CC(=O)OCC` (centres undefined): the GI50 in experiment [1], in experiment [2], in experiment [3], in experiment [4], in experiment [5] and in experiment [6] was > 100 µM (inactive) throughout. Moreover, the GI50 in [7] was > 100 µM (inactive); in experiment [8], > 100 µM (inactive); in [9] it was > 100 µM (inactive); in experiment [10], > 10 µM (inactive); in [11] it was > 100 µM (inactive); in experiment [12] it was > 100 µM (inactive). Also, the GI50 in [13], in experiment [14], in experiment [15] and in [16] was > 100 µM (inactive) throughout.

In the case of `OCCN(C1=NCCN1)/[N+](=C/c1ccc(Cl)cc1)[CH-]c1ccc(Cl)cc1`, the GI50 in experiment [1] is > 100 µM (inactive); in [17], > 100 µM (inactive); in [2], > 100 µM (inactive); in [3] it was 26.5 µM (inactive); in [4] it was > 100 µM (inactive); in [5] it was > 100 µM (inactive). In addition, the GI50 in [6], in experiment [18], in experiment [7], in experiment [8], in experiment [9] and in [10] was > 100 µM (inactive) throughout. Also, the GI50 in experiment [12] was 29.4 µM (inactive); in [19] it was 27.1 µM (inactive); in experiment [13] it was 61.8 µM (inactive); in experiment [14] it was > 100 µM (inactive); in experiment [15], > 100 µM (inactive); in experiment [16], 95.5 µM (inactive).

As for `Cc1cc(C)n(C(C)(C(=O)Cc2ccccc2)n2nc(C)cc2C)n1`, the GI50 in experiment [1], in experiment [17], in [2], in [3], in experiment [4] and in [5] was > 100 µM (inactive) in each case. Besides, the GI50 in [6], in experiment [7], in experiment [8], in [9], in experiment [10] and in [11] was > 100 µM (inactive) each time. Moreover, the GI50 in experiment [12], in experiment [19], in experiment [14], in [15] and in [16] was > 100 µM (inactive) throughout.

With `c1ccc2nn(C3CCCCO3)nc2c1` (centres undefined), the GI50 in experiment [1], in experiment [17], in experiment [2], in experiment [3], in [4] and in experiment [5] was > 100 µM (inactive) each time. Also, the GI50 in experiment [6], in experiment [18], in experiment [7], in experiment [8], in [9] and in [10] was > 100 µM (inactive) in each case. Further, the GI50 in experiment [12], in [19], in experiment [13], in experiment [14], in experiment [15] and in experiment [16] was > 100 µM (inactive) each time.

In the case of `Cc1[nH]c2ccccc2c1C1=CC(=O)N(c2ccccc2)C1=O`, the GI50 was 23.2 µM (inactive) in experiment [1]; 9.82 µM (inactive) in experiment [17]; 22.1 µM (inactive) in experiment [2]; 36.2 µM (inactive) in experiment [3]; 11.1 µM (inactive) in experiment [4]; 20.2 µM (inactive) in [5]. For the same compound, the GI50 in experiment [6] is 9.53 µM (inactive); in [7], 22.5 µM (inactive); in experiment [8], 14.8 µM (inactive); in [9], 13.8 µM (inactive); in experiment [10], 26.7 µM (inactive); in [11] it was 9.71 µM (inactive). In addition, the GI50 in experiment [12] is 1.75 µM (inactive); in [19] it was 13.6 µM (inactive); in [13], 8.45 µM (inactive); in experiment [14] it was 8.22 µM (inactive); in [15], 14.6 µM (inactive); in experiment [16] it was 8.75 µM (inactive).

In the case of `N#Cc1c2c(c(N3CCOCC3)n3c1nc1ccccc13)CCCC2`, the GI50 in experiment [1] is 14.8 µM (inactive); in [17], 22.3 µM (inactive); in [2], 16.6 µM (inactive); in experiment [3], 8.81 µM (inactive); in experiment [4], 23.1 µM (inactive); in experiment [5], 17.9 µM (inactive). Moreover, the GI50 in experiment [6] is 18.8 µM (inactive); in experiment [7], 23.8 µM (inactive); in experiment [8] it was 19.2 µM (inactive); in [9] it was 19.9 µM (inactive); in experiment [10] it was 17.9 µM (inactive); in experiment [11], 19 µM (inactive). Also, the GI50 in experiment [12] is 21.8 µM (inactive); in [19] it was 16.5 µM (inactive); in experiment [13], 2.75 µM (inactive); in [14], > 100 µM (inactive); in [15] it was 23.7 µM (inactive); in experiment [16], 13.9 µM (inactive).

Take `O=C1C=C(N2CCN(c3ncccn3)CC2)C(=O)c2c(O)ccc(O)c21`: the GI50 in experiment [1] was > 100 µM (inactive); in experiment [17] it was 16.2 µM (inactive); in [2], > 100 µM (inactive); in experiment [3], > 100 µM (inactive); in experiment [4], > 100 µM (inactive); in [5], > 100 µM (inactive). In addition, the GI50 in [6], in experiment [7], in experiment [8], in [9], in experiment [10] and in experiment [11] was > 100 µM (inactive) each time. The GI50 is > 100 µM (inactive) in [12]; > 100 µM (inactive) in experiment [13]; 27.6 µM (inactive) in experiment [14]; > 100 µM (inactive) in experiment [15]; 73.1 µM (inactive) in experiment [16].

With `N#CC(NCCc1ccccc1)c1ccccc1` (centres undefined), the GI50 in [1], in experiment [17], in [2], in experiment [3], in experiment [4] and in [5] was > 100 µM (inactive) throughout. Further, the GI50 in [6], in [18], in [7], in [8], in experiment [9] and in experiment [10] was > 100 µM (inactive) each time. Moreover, the GI50 in experiment [12], in experiment [19], in experiment [13], in experiment [14], in experiment [15] and in experiment [16] was > 100 µM (inactive) in each case.

On to `CC(NS(C)(=O)=O)c1ccccc1` (centres undefined), for which the GI50 in experiment [17], in experiment [2], in [3], in experiment [4], in experiment [5] and in [6] was > 100 µM (inactive) each time. The GI50 in [18], in [7], in [8], in experiment [9], in experiment [10] and in experiment [12] was > 100 µM (inactive) in each case. For the same compound, the GI50 in experiment [19], in [13], in experiment [14], in experiment [15] and in experiment [16] was > 100 µM (inactive) each time.

For the compound `CC1OC2(CC(OCc3ccccc3)C1OCc1ccccc1)OCCO2` (centres undefined), the GI50 in experiment [1] was 61.8 µM (inactive); in [17], 56.9 µM (inactive); in experiment [2], 44.3 µM (inactive); in experiment [3], 27.3 µM (inactive); in experiment [4], > 100 µM (inactive); in experiment [5], 39.1 µM (inactive). The GI50 in [6] was > 100 µM (inactive); in [7], 50.7 µM (inactive); in experiment [8], > 100 µM (inactive); in experiment [9], 21.4 µM (inactive); in experiment [10], 51.1 µM (inactive); in experiment [11], 12.8 µM (inactive). For the same compound, the GI50 in experiment [12] is 71.8 µM (inactive); in experiment [19], 78.5 µM (inactive); in experiment [13], 34.4 µM (inactive); in [14], 17.4 µM (inactive); in experiment [15], 32 µM (inactive); in [16] it was 45.9 µM (inactive).

Take `Cc1ccc(NC(=O)c2cc3ccccc3c(/N=N\c3ccccc3O)c2O)c(C)c1`: the GI50 in experiment [1] is 1.88 µM (inactive); in experiment [2] it was 1.2 µM (inactive); in experiment [3], 1.25 µM (inactive); in [4], 5.31 µM (inactive); in experiment [5] it was 1.54 µM (inactive); in experiment [6], 0.37 µM (active). For the same compound, the GI50 was 0.053 µM (active) in experiment [18]; 2.25 µM (inactive) in experiment [7]; 0.859 µM (active) in [8]; 0.863 µM (active) in experiment [10]; 5.06 µM (inactive) in experiment [12]; 2.98 µM (inactive) in [19]. For the same compound, the GI50 in experiment [13] was 0.818 µM (active); in [14] it was 1.64 µM (inactive); in [15] it was 0.44 µM (active); in experiment [16], 0.664 µM (active).

Consider `COc1ccc(OC)c(C#Cc2ccc(OC)c(C(=O)NCCc3ccc(F)cc3)c2)c1`, for which the GI50 is > 100 µM (inactive) in experiment [1]; 61.2 µM (inactive) in experiment [2]; 2.19 µM (inactive) in experiment [3]; > 100 µM (inactive) in [4]; 7.8 µM (inactive) in [5]; 7.55 µM (inactive) in experiment [7]. Further, the GI50 in experiment [8] is > 100 µM (inactive); in experiment [10], 4.67 µM (inactive); in experiment [11], 9.84 µM (inactive); in experiment [12], 2.27 µM (inactive); in [19], 5.05 µM (inactive); in experiment [14] it was > 100 µM (inactive). Moreover, in experiment [15], the GI50 is 5.09 µM (inactive).
